PubChem BioAssay (NCI)
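Cultured in 96-well plates, cells were exposed to test compound for 48 hours across five concentrations. GI50 = concentration required for 50% inhibition of growth. Definition used: TGI = concentration required for complete inhibition of growth.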

How the values were obtained:
Assay in all cases: DTP human tumour cell line panel, 48 h
[1] = test system: UO-31 renal
[2] = test system: SK-OV-3 ovarian
[3] = test system: CAKI-1 renal
[4] = test system: UACC-257 melanoma
[5] = test system: SNB-19 CNS
[6] = test system: ACHN renal
[7] = test system: SR leukemia
[8] = test system: NCI/ADR-RES ovarian
[9] = test system: COLO 205 colon
[10] = test system: T-47D breast

COc1ccc(-c2cc(=O)c3cc(OC)c(OC)cc3[nH]2)cc1OC
TGI [1]: > 100 µM | TGI [2]: > 100 µM | TGI [3]: > 100 µM | TGI [4]: > 100 µM | TGI [5]: > 100 µM | TGI [6]: > 100 µM | TGI [7]: > 100 µM | TGI [8]: > 100 µM | TGI [9]: > 100 µM

CCCSC1=N/C(=C\c2ccco2)C(=O)N1
TGI [1]: > 100 µM | TGI [2]: > 100 µM | TGI [3]: > 100 µM | TGI [4]: > 100 µM | TGI [10]: > 100 µM | TGI [5]: > 100 µM | TGI [6]: > 100 µM | TGI [8]: > 100 µM | TGI [9]: > 100 µM

COc1ccc(Sc2ccccc2[N+](=O)[O-])cc1
TGI [1]: > 100 µM | TGI [2]: > 100 µM | TGI [4]: > 100 µM | TGI [5]: > 100 µM | TGI [7]: > 100 µM | TGI [9]: 29.7 µM

NS(=O)(=O)c1cc2c(cc1Cl)NC(C(=O)NNC(=O)c1ccncc1)=NS2(=O)=O
TGI [1]: > 100 µM | TGI [2]: > 100 µM | TGI [3]: > 100 µM | TGI [4]: > 100 µM | TGI [5]: > 100 µM | TGI [6]: > 100 µM | TGI [7]: > 100 µM | TGI [9]: > 100 µM

CCc1n[nH]c(=O)n1-c1ccncc1
TGI [1]: > 100 µM | TGI [3]: > 100 µM | TGI [4]: > 100 µM | TGI [10]: > 100 µM | TGI [5]: > 100 µM | TGI [6]: > 100 µM | TGI [7]: > 100 µM | TGI [8]: > 100 µM | TGI [9]: > 100 µM

Cn1c(=O)c(C#N)c(O)c2cc3ccccc3nc21
TGI [1]: > 100 µM | TGI [2]: > 100 µM | TGI [3]: > 100 µM | TGI [4]: > 100 µM | TGI [5]: > 100 µM | TGI [6]: > 100 µM | TGI [7]: > 100 µM | TGI [9]: > 100 µM

Cc1cc(NS(=O)(=O)c2ccc(NC(NC(=O)OC(C)C)(C(F)(F)F)C(F)(F)F)cc2)nc(C)n1
TGI [2]: > 100 µM | TGI [3]: > 100 µM | TGI [4]: > 100 µM | TGI [10]: > 100 µM | TGI [5]: > 100 µM | TGI [6]: > 100 µM | TGI [7]: > 100 µM | TGI [8]: > 100 µM | TGI [9]: > 100 µM

Cc1cc(N(CCCl)CCCl)ccc1/C=N\NC(=O)c1cccnc1
GI50 [1]: 21.6 µM | TGI [1]: 82.7 µM | GI50 [3]: 5.46 µM | TGI [3]: 45 µM | GI50 [4]: 6.96 µM | TGI [4]: 34.9 µM | GI50 [10]: 6.41 µM | TGI [10]: 50.2 µM | GI50 [5]: > 100 µM | TGI [5]: > 100 µM | GI50 [6]: 10.7 µM | TGI [6]: > 100 µM | GI50 [7]: 4.81 µM | TGI [7]: > 100 µM | GI50 [8]: 13.7 µM | TGI [8]: 48.7 µM | GI50 [9]: 19.1 µM | TGI [9]: 85.3 µM

COc1ccc(N=C(SSC(=Nc2ccc(OC)cc2)c2ccc([N+](=O)[O-])o2)c2ccc([N+](=O)[O-])o2)cc1
TGI [1]: 3.01 µM | TGI [2]: 11.1 µM | TGI [3]: 5.87 µM | TGI [4]: > 19.9 µM | TGI [10]: 4.2 µM | TGI [5]: 3.26 µM | TGI [6]: 4.1 µM | TGI [7]: > 21.7 µM

CCOC(=O)C1(NC(=O)OC(C)(C)C)CCc2[nH]oc(=O)c2C1 (stereo not given)
TGI [1]: > 100 µM | TGI [2]: > 100 µM | TGI [3]: > 100 µM | TGI [4]: > 100 µM | TGI [10]: > 100 µM | TGI [5]: > 100 µM | TGI [6]: > 100 µM | TGI [8]: > 100 µM | TGI [9]: > 100 µM

CNc1nc(OC)c2c(n1)[n+](C)cn2C
TGI [1]: > 100 µM | TGI [2]: > 100 µM | TGI [3]: > 100 µM | TGI [4]: > 100 µM | TGI [10]: > 100 µM | TGI [5]: > 100 µM | TGI [6]: > 100 µM | TGI [8]: > 100 µM | TGI [9]: > 100 µM

CO/C(N)=C(\C#N)N=Cc1cccs1
TGI [1]: > 100 µM | TGI [2]: > 100 µM | TGI [3]: > 100 µM | TGI [4]: > 100 µM | TGI [10]: > 100 µM | TGI [5]: > 100 µM | TGI [6]: > 100 µM | TGI [8]: > 100 µM | TGI [9]: > 100 µM

O=C(Cn1c(-c2ccccc2)cc2ccccc21)N1CCOCC1
TGI [1]: > 100 µM | TGI [2]: > 100 µM | TGI [3]: > 100 µM | TGI [4]: > 100 µM | TGI [10]: > 100 µM | TGI [5]: > 100 µM | TGI [6]: > 100 µM | TGI [8]: > 100 µM | TGI [9]: > 100 µM

CCOC(=O)c1sc2nc(SC)nc3c2c1NCN3c1ccccc1Cl
TGI [1]: > 100 µM | TGI [2]: > 100 µM | TGI [3]: > 100 µM | TGI [4]: > 100 µM | TGI [10]: 60.3 µM | TGI [5]: > 100 µM | TGI [6]: > 100 µM | TGI [8]: > 100 µM | TGI [9]: > 100 µM

CC1=C(C(=O)OC(C)(C)C)C(c2ccc([N+](=O)[O-])cc2)C(C(=O)OC(C)(C)C)=C(C)N1
TGI [1]: 33.5 µM | TGI [2]: 73.3 µM | TGI [3]: 56.4 µM | TGI [4]: 40.6 µM | TGI [10]: 33.4 µM | TGI [5]: 75.8 µM | TGI [6]: 41.3 µM | TGI [9]: 39.8 µM

Nc1cc(O)c2cc(N=Nc3ccc(N=Nc4ccc(N=Nc5ccc6cc(S(=O)(=O)O)cc(S(=O)(=O)O)c6c5)c5ccccc45)c4cc(S(=O)(=O)O)ccc34)c(S(=O)(=O)O)cc2c1
TGI [1]: > 100 µM | TGI [2]: > 100 µM | TGI [4]: > 100 µM | TGI [5]: > 100 µM | TGI [8]: > 100 µM | TGI [9]: > 100 µM

CCN(CCCl)c1ccc(NC(=O)c2cc(C(=O)NCCN(C)C)cc(C(=O)Nc3ccc(N(CC)CCCl)cc3)c2)cc1
TGI [1]: > 100 µM | TGI [2]: 19.5 µM | TGI [3]: > 100 µM | TGI [4]: 65.6 µM | TGI [10]: 53.9 µM | TGI [5]: 19.9 µM | TGI [6]: 21.3 µM | TGI [7]: > 100 µM | TGI [8]: > 100 µM

COC(=O)C1CCC(=S)N1C(C)=O (stereo not given)
TGI [1]: > 100 µM | TGI [2]: > 100 µM | TGI [3]: > 100 µM | TGI [4]: > 100 µM | TGI [5]: > 100 µM | TGI [6]: > 100 µM | TGI [8]: > 100 µM | TGI [9]: > 100 µM

NNC(=O)COc1nc(-c2cccs2)nc2ccc(I)cc12
TGI [1]: 63.5 µM | TGI [2]: 61 µM | TGI [3]: 44.1 µM | TGI [10]: 21.9 µM | TGI [5]: 39.2 µM | TGI [6]: 74.2 µM | TGI [7]: 55.6 µM | TGI [8]: 91.9 µM | TGI [9]: 70.9 µM

N#Cc1c(N)n(-c2nc3ccccc3s2)c(=O)c2cc([N+](=O)[O-])ccc12
TGI [1]: > 79.2 µM | TGI [2]: 98.1 µM | TGI [3]: 58.5 µM | TGI [4]: 69.3 µM | TGI [10]: > 100 µM | TGI [5]: > 77.1 µM | TGI [6]: > 72.8 µM | TGI [7]: 56.2 µM | TGI [8]: 22.8 µM

O=C(NCc1ccc(Cl)c(Cl)c1)c1nc2ccccc2nc1NCc1ccc(Cl)c(Cl)c1
TGI [1]: > 100 µM | TGI [3]: > 100 µM | TGI [4]: > 100 µM | TGI [10]: > 100 µM | TGI [5]: > 100 µM | TGI [6]: > 100 µM | TGI [7]: > 100 µM | TGI [8]: > 100 µM | TGI [9]: > 100 µM

CCCCC(C)(C/C=C/[C@@H]1[C@@H](C(O)CCCCCC(=O)OC)C(=O)C[C@H]1O[Si](C)(C)C(C)(C)C)O[Si](C)(C)C (stereo not given in full)
TGI [1]: > 100 µM | TGI [2]: > 100 µM | TGI [3]: 78.1 µM | TGI [4]: > 100 µM | TGI [5]: > 100 µM | TGI [6]: > 100 µM | TGI [7]: > 100 µM | TGI [8]: > 100 µM | TGI [9]: > 100 µM

Oc1[nH]c2ccccc2c1N=Nc1nc(-c2ccccc2)cs1
TGI [1]: > 100 µM | TGI [2]: > 100 µM | TGI [3]: 39.8 µM | TGI [4]: > 100 µM | TGI [10]: > 100 µM | TGI [5]: > 100 µM | TGI [6]: > 100 µM | TGI [8]: 83 µM | TGI [9]: > 100 µM
